Results taken from EPA's ToxValDB 9.5 (doi:10.2903/j.efsa.2009.1348).
In brackets after ≈: the same amount, converted by molar mass.

Key:
Oncorhynchus mykiss = conditions: chronic/long-term; duration: 28 days
Bird = conditions: for LD50: acute, unspecified
Oryctolagus sp. = conditions: reproduction developmental; reproduction
Apis mellifera = conditions: acute; duration: 48 hours; oral; unspecified; mortality
Lepomis macrochirus = conditions: acute; duration: 96 hours; mortality
Daphnia magna = conditions: chronic/long-term; duration: 21 days; reproduction
Bibionidae = conditions: chronic/long-term; duration: 28 days
[1] = chronic/long-term
Canidae = conditions: chronic; duration: 1 years; oral; Dog Other; organ weight

| Structure (SMILES) | NOEC (Oncorhynchus mykiss) [mg/L] | LD50 (Bird; oral, mortality) | NOAEL (Oryctolagus sp.) [mg/kg-day] | LD50 (Apis mellifera) [µg/piece] | LC50 (Tagia sp.; acute, mortality) [mg/kg] | NOEC (Tagia sp.; chronic/long-term) [g/ha] | LD50 (Rattus norvegicus; acute, oral, mortality) [mg/kg] | NOAEL (Rattus norvegicus; chronic, duration: 2 years, organ weight) [mg/kg-day] | NOAEL (Rattus norvegicus; reproduction developmental, body weight) [mg/kg-day] | LC50 (Lepomis macrochirus) [µg/mL] | NOEC (Daphnia magna) [mg/L] | LEL (Aphidius rhopalosiphi; chronic/long-term, reproduction) [g/ha] | LEL (Aphidius rhopalosiphi; not reported, mortality) [g/ha] | NOEC (Bibionidae) [mg/L] | NOAEL [1] [mg/kg-day] | NOEC (Bird; reproductive) [mg/kg-day] | LC50 (Bird; short-term, oral, feed, mortality) [mg/kg-day] | NOAEL (Canidae) [mg/kg-day] |
| --- | --- | --- | --- | --- | --- | --- | --- | --- | --- | --- | --- | --- | --- | --- | --- | --- | --- | --- |
| COC(=O)[C@@H](C)Oc1ccc(Oc2ncc(C(F)(F)F)cc2Cl)cc1 [Haloxyfop-P-methyl] | 0.0052 | 1160 mg/kg-day |  |  |  |  |  |  |  |  |  |  |  |  |  |  |  |  |
| C[C@@H](Oc1ccc(Oc2ncc(C(F)(F)F)cc2Cl)cc1)C(=O)O [Haloxyfop-P] |  | 414 mg/kg | 7.5 | > 100 | 830 | 810 | 300 | 0.065 | 0.065 | 0.0884 (≈ 0.244 µM) | 0.509 | 5.7 | 108 | 2.5 | 1 | 17.1 | > 1110 | 0.5 |
